By TGI is commonly meant the concentration giving total growth inhibition. By GI50 is commonly meant the concentration giving 50% growth inhibition.

Some test systems named below: ACHN renal; LOX IMVI melanoma; MOLT-4 leukemia; NCI-H460 lung; NCI-H522 lung; OVCAR-5 ovarian; RXF 393 renal; SF-295 CNS; DU-145 prostate.
Assay in all cases: DTP human tumour cell line panel, 48 h

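A five-concentration, 48-hour dose response in 96-well plates underlies each endpoint, interpolated linearly between surrounding concentrations. Abbreviation: GI50, concentration required for 50% inhibition of growth. Definition used: TGI = concentration required for complete inhibition of growth.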

`COc1ccc2nc(-c3ccc(O)cc3)ccc2c1`: the TGI in the assay on ACHN renal, in the assay with LOX IMVI melanoma, with MOLT-4 leukemia, in the assay with NCI-H460 lung, with NCI-H522 lung and in the assay on OVCAR-5 ovarian was more than 100 µM throughout. Moreover, the concentration for total growth inhibition (TGI) in the assay on RXF 393 renal and in the assay with SF-295 CNS was more than 100 µM each time.
With `Cn1cc(NC(=O)c2cc(NC(=O)CCCCCCCC(=O)Nc3cc(C(=O)Nc4cc(C(=O)NCCC(=N)N)n(C)c4)n(C)c3)cn2C)cc1C(=O)NCCC(=N)N`, the TGI in the assay with ACHN renal was more than 100 µM; in the assay on LOX IMVI melanoma, 28.8 µM; with MOLT-4 leukemia, 66.7 µM; in the assay on NCI-H460 lung, 22 µM; with OVCAR-5 ovarian, more than 100 µM; in the assay on RXF 393 renal, 41.3 µM. Moreover, the TGI in the assay with SF-295 CNS is more than 100 µM.
For the compound `Cc1csc(CCC(N)C(=O)O)n1` (stereo not drawn), the TGI in the assay with ACHN renal, in the assay on LOX IMVI melanoma, with MOLT-4 leukemia, in the assay on NCI-H460 lung, with NCI-H522 lung and in the assay on RXF 393 renal was more than 100 µM in each case. The TGI with SF-295 CNS was more than 100 µM.
For `C1CCN2CC3CONC3C2C1` (stereo not drawn), the TGI in the assay with ACHN renal, in the assay on LOX IMVI melanoma, in the assay with MOLT-4 leukemia, in the assay with NCI-H460 lung, in the assay on NCI-H522 lung and with OVCAR-5 ovarian was more than 100 µM in each case. Also, the TGI in the assay with RXF 393 renal and in the assay with SF-295 CNS was more than 100 µM each time.
Turning to `CCOC(=O)C1=C(C)N(Cc2ccc(Cl)cc2Cl)[C@]2(C#N)C(O)=C(Cl)C(Cl)=C(O)[C@]12C#N`, the GI50 in the assay on ACHN renal is more than 100 µM; with DU-145 prostate it was 16.7 µM; in the assay on LOX IMVI melanoma, 17.5 µM; in the assay on MOLT-4 leukemia it was 27.9 µM; in the assay on NCI-H460 lung, more than 100 µM; in the assay with NCI-H522 lung it was 42.5 µM. Further, the GI50 was 2.7 µM in the assay on OVCAR-5 ovarian, 30.6 µM in the assay with RXF 393 renal and more than 100 µM with SF-295 CNS. The TGI with ACHN renal was more than 100 µM; in the assay with DU-145 prostate, 38.7 µM; in the assay on LOX IMVI melanoma, 35 µM; with MOLT-4 leukemia, 61.6 µM; in the assay with NCI-H460 lung, more than 100 µM; in the assay on NCI-H522 lung, more than 100 µM. The TGI with OVCAR-5 ovarian is 31.3 µM; in the assay with RXF 393 renal, 89.1 µM; with SF-295 CNS it was more than 100 µM.
With `CC1(C)CC(O)CC(C)(C)N1.CC1(C)CC(O)CC(C)(C)N1.CC1(C)CC(O)CC(C)(C)N1.CC1(C)CC(O)CC(C)(C)N1.Cl.[Ti]`, the GI50 in the assay with ACHN renal, in the assay on LOX IMVI melanoma, in the assay with MOLT-4 leukemia, with NCI-H460 lung, in the assay on NCI-H522 lung and in the assay on OVCAR-5 ovarian was more than 100 µM each time. Moreover, the GI50 with RXF 393 renal and in the assay on SF-295 CNS was more than 100 µM in each case. For the same compound, the total growth inhibition concentration (TGI) with ACHN renal, with LOX IMVI melanoma, in the assay with MOLT-4 leukemia, in the assay on NCI-H460 lung, in the assay on NCI-H522 lung and in the assay with OVCAR-5 ovarian was more than 100 µM each time. Moreover, the TGI in the assay on RXF 393 renal and with SF-295 CNS was more than 100 µM in each case.
Consider `CC(C)(C)c1cc(C(OCCl)(C(F)(F)F)C(F)(F)F)c2c(c1)C(C(F)(F)F)(C(F)(F)F)OC21c2ccccc2C(=O)c2ccccc21`, for which the TGI with ACHN renal, in the assay on MOLT-4 leukemia, in the assay on NCI-H460 lung, with NCI-H522 lung, with OVCAR-5 ovarian and with RXF 393 renal was more than 100 µM throughout. This compound gave a TGI in the assay on SF-295 CNS of more than 100 µM.
In the case of `CCN(CC)CCCNc1c2ccc(Cl)cc2nc2ccc(OC)cc12`, the 50% growth inhibitory concentration (GI50) with DU-145 prostate was 0.0476 µM; in the assay on LOX IMVI melanoma it was 0.0342 µM; in the assay with MOLT-4 leukemia it was 0.0338 µM; in the assay on NCI-H460 lung, 0.0326 µM; in the assay on RXF 393 renal, 0.0403 µM. For the same compound, the concentration for total growth inhibition (TGI) is 4.08 µM in the assay with DU-145 prostate; 1.93 µM in the assay with LOX IMVI melanoma; 2.91 µM with MOLT-4 leukemia; 1.34 µM with NCI-H460 lung; 2.15 µM in the assay with RXF 393 renal.
Consider `Nc1ccn([C@@H]2S[C@H](CO)[C@@H](O)[C@@H]2F)c(=O)n1`, for which the concentration for 50% growth inhibition (GI50) in the assay on ACHN renal is 0.0271 µM; in the assay on DU-145 prostate, 0.0424 µM; in the assay with LOX IMVI melanoma it was 0.224 µM; in the assay with MOLT-4 leukemia, 0.0304 µM; in the assay with NCI-H460 lung, 0.138 µM; with NCI-H522 lung, 8.83 µM. Further, the GI50 with OVCAR-5 ovarian is 0.509 µM; with RXF 393 renal it was 0.289 µM; in the assay with SF-295 CNS, 0.452 µM. Also, the TGI with DU-145 prostate, in the assay with LOX IMVI melanoma, in the assay with MOLT-4 leukemia, in the assay with NCI-H460 lung, in the assay on NCI-H522 lung and in the assay on OVCAR-5 ovarian was more than 100 µM throughout. The TGI was more than 22.4 µM with RXF 393 renal and more than 24.7 µM in the assay on SF-295 CNS.
As for `C1=C(c2ccccc2)C(OC2Oc3ccccc3C=C2c2ccccc2)Oc2ccccc21` (stereo not drawn), the TGI with ACHN renal, in the assay on LOX IMVI melanoma, in the assay on MOLT-4 leukemia, with NCI-H460 lung, in the assay with NCI-H522 lung and in the assay on OVCAR-5 ovarian was more than 100 µM throughout. In addition, the TGI in the assay on RXF 393 renal and with SF-295 CNS was more than 100 µM throughout.
For the compound `Nc1c(-c2nc3ccccc3s2)[n+]([O-])c2ccccc2[n+]1[O-]`, the TGI was 78 µM in the assay on ACHN renal; more than 100 µM in the assay on MOLT-4 leukemia; more than 100 µM in the assay with NCI-H460 lung; 45.8 µM with NCI-H522 lung; more than 100 µM in the assay on OVCAR-5 ovarian; 72.5 µM with SF-295 CNS.
In the case of `O=C(CCC(=O)C1Cc2ccccc2C1=O)Nc1cccc(C(F)(F)F)c1` (stereo not drawn), the TGI with ACHN renal, in the assay with LOX IMVI melanoma, in the assay on MOLT-4 leukemia, with NCI-H460 lung, with OVCAR-5 ovarian and with RXF 393 renal was more than 100 µM throughout. The same compound showed a TGI in the assay with SF-295 CNS of more than 100 µM.
In the case of `Nc1c(C(=O)Nc2ccccc2O)[n+]([O-])c2ccccc2[n+]1[O-]`, the TGI in the assay on ACHN renal, in the assay with MOLT-4 leukemia, in the assay on NCI-H460 lung, in the assay with NCI-H522 lung, in the assay with OVCAR-5 ovarian and in the assay on SF-295 CNS was more than 100 µM in each case.
For `O=c1c2cccc3cccc(c4n1CCCN=4)c32`, the TGI was more than 100 µM in the assay on ACHN renal; 53.5 µM in the assay on LOX IMVI melanoma; more than 100 µM in the assay on MOLT-4 leukemia; more than 100 µM in the assay with NCI-H460 lung; more than 100 µM in the assay with NCI-H522 lung; more than 100 µM in the assay with OVCAR-5 ovarian. In addition, the TGI with RXF 393 renal and in the assay on SF-295 CNS was more than 100 µM throughout.

The values are drawn from PubChem BioAssay (NCI).
